Results: PubChem BioAssay AID248 (DTP/NCI, 2004)
Toxic doses and inconclusive results are not listed. Rule as the data show it: active = T/C of 150% or more; inactive = T/C below 125%.

System: L1210 leukemia ip in BDF1 mice, survival T/C
Assay: NCI In Vivo Anticancer Drug Screen. Data for tumor model L1210 Leukemia (intraperitoneal) in B6D2F1 (BDF1) mice
Conditions: endpoint: mean survival time, higher = longer survival
Method in brief: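 Transplanted-tumor mice were given test agent; controls received vehicle only. Survival readings from the two groups were divided (treated over control).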

[1] = dose: 25.0 mg/kg/injection, schedule: Q01DX009 (ip), vehicle: saline with Tween-80
[2] = dose: 50.0 mg/kg/injection, schedule: Q01DX009 (ip), vehicle: saline with Tween-80
[3] = dose: 50.0 mg/kg/injection, schedule: Q04DX003 (ip), vehicle: saline with Tween-80
[4] = dose: 100.0 mg/kg/injection, schedule: Q04DX003 (ip), vehicle: saline with Tween-80
[5] = dose: 200.0 mg/kg/injection, schedule: Q04DX003 (ip), vehicle: saline with Tween-80
[6] = dose: 400.0 mg/kg/injection, schedule: Q04DX003 (ip), vehicle: saline with Tween-80
[7] = dose: 100.0 mg/kg/injection, schedule: Q01DX001 (ip), vehicle: saline
[8] = dose: 200.0 mg/kg/injection, schedule: Q01DX001 (ip), vehicle: saline
[9] = dose: 400.0 mg/kg/injection, schedule: Q01DX001 (ip), vehicle: saline
[10] = dose: 100.0 mg/kg/injection, schedule: Q01DX009 (ip), vehicle: saline with Tween-80
[11] = dose: 100.0 mg/kg/injection, schedule: Q01DX001 (ip), vehicle: Klucel (hydroxypropylcellulose) (HPC)
[12] = dose: 100.0 mg/kg/injection, schedule: Q01DX009 (ip), vehicle: Klucel (hydroxypropylcellulose) (HPC)
[13] = dose: 200.0 mg/kg/injection, schedule: Q01DX001 (ip), vehicle: Klucel (hydroxypropylcellulose) (HPC)
[14] = dose: 200.0 mg/kg/injection, schedule: Q01DX009 (ip), vehicle: Klucel (hydroxypropylcellulose) (HPC)
[15] = dose: 400.0 mg/kg/injection, schedule: Q01DX001 (ip), vehicle: Klucel (hydroxypropylcellulose) (HPC)
[16] = dose: 400.0 mg/kg/injection, schedule: Q01DX009 (ip), vehicle: Klucel (hydroxypropylcellulose) (HPC)
[17] = dose: 100.0 mg/kg/injection, schedule: Q04DX003 (ip), vehicle: saline
[18] = dose: 200.0 mg/kg/injection, schedule: Q04DX003 (ip), vehicle: saline
[19] = dose: 400.0 mg/kg/injection, schedule: Q04DX003 (ip), vehicle: saline

Measured: T/C

CCCCCCCCSCCO
inactive: dose: 12.0 mg/kg/injection, schedule: Q01DX009 (ip), vehicle: saline with Tween-80 104 % of control | [1] 101 % of control | [2] 95 % of control | [3] 98 % of control | [4] 96 % of control | [5] 94 % of control | [6] 98 % of control

COc1ccc(SC2=C(N(C)C(C)=O)C(=O)c3ccccc3C2=O)cc1
inactive: dose: 7.5 mg/kg/injection, schedule: Q01DX009 (ip), vehicle: Klucel (hydroxypropylcellulose) (HPC) 89 % of control | dose: 15.0 mg/kg/injection, schedule: Q01DX001 (ip), vehicle: Klucel (hydroxypropylcellulose) (HPC) 93 % of control | dose: 15.0 mg/kg/injection, schedule: Q01DX009 (ip), vehicle: Klucel (hydroxypropylcellulose) (HPC) 92 % of control | dose: 30.0 mg/kg/injection, schedule: Q01DX001 (ip), vehicle: Klucel (hydroxypropylcellulose) (HPC) 88 % of control | dose: 30.0 mg/kg/injection, schedule: Q01DX009 (ip), vehicle: Klucel (hydroxypropylcellulose) (HPC) 89 % of control

CSc1cc(N)nc2c1ncn2C1OC(CO)C(O)C1O (configuration not stated)
inactive: [7] 113 % of control | [8] 93 % of control | [9] 103 % of control

CC(CC(=O)O)Nc1ccc(Cl)c(Cl)c1 (configuration not stated)
inactive: [1] 100 % of control | [2] 102 % of control | [10] 94 % of control | [4] 107 % of control | [5] 96 % of control

CCCC(=O)Nc1ccc(Cl)c(Cl)c1
inactive: [4] 98 % of control | [5] 102 % of control | [6] 89 % of control

Cc1cccc(Cl)c1OCC(=O)Nc1ccc(Cl)cc1
inactive: dose: 100.0 mg/kg/injection, schedule: Q04DX002 (ip), vehicle: saline with Tween-80 90 % of control | dose: 200.0 mg/kg/injection, schedule: Q04DX002 (ip), vehicle: saline with Tween-80 93 % of control | dose: 400.0 mg/kg/injection, schedule: Q04DX002 (ip), vehicle: saline with Tween-80 93 % of control

N#CCC1=CC(=O)C(=O)c2ccccc21
inactive: [7] 102 % of control | [8] 102 % of control | [9] 100 % of control

COc1ccc(C)cc1N=Nc1cc(C)ccc1OC
inactive: dose: 100.0 mg/kg/injection, schedule: Q01DX009 (ip), vehicle: gum acacia 100 % of control | dose: 100.0 mg/kg/injection, schedule: Q04DX003 (ip), vehicle: gum acacia 91 % of control | dose: 200.0 mg/kg/injection, schedule: Q01DX009 (ip), vehicle: gum acacia 91 % of control | dose: 200.0 mg/kg/injection, schedule: Q04DX003 (ip), vehicle: gum acacia 86 % of control | dose: 400.0 mg/kg/injection, schedule: Q01DX009 (ip), vehicle: gum acacia 88 % of control | dose: 400.0 mg/kg/injection, schedule: Q04DX003 (ip), vehicle: gum acacia 92 % of control

C1=Cc2c3c(c4c(c2C1)C=CC4)CC=C3
inactive: dose: 25.0 mg/kg/injection, schedule: Q01DX001 (ip), vehicle: Klucel (hydroxypropylcellulose) (HPC) 93 % of control | dose: 50.0 mg/kg/injection, schedule: Q01DX001 (ip), vehicle: Klucel (hydroxypropylcellulose) (HPC) 97 % of control | [11] 101 % of control | [12] 95 % of control | [13] 92 % of control | [14] 88 % of control | [15] 93 % of control | [16] 95 % of control

Nc1nc(Nc2ccccc2)nc(C(=O)O)n1
inactive: dose: 100.0 mg/kg/injection, schedule: Q01DX009 (ip), vehicle: saline 92 % of control | [17] 110 % of control | dose: 200.0 mg/kg/injection, schedule: Q01DX009 (ip), vehicle: saline 106 % of control | [18] 101 % of control | dose: 400.0 mg/kg/injection, schedule: Q01DX009 (ip), vehicle: saline 115 % of control | [19] 106 % of control

C#CCNc1ccccc1
inactive: dose: 100.0 mg/kg/injection, schedule: Q04DX002 (sc), vehicle: olive oil, sesame oil, peanut oil 102 % of control | dose: 200.0 mg/kg/injection, schedule: Q04DX002 (sc), vehicle: olive oil, sesame oil, peanut oil 102 % of control | dose: 400.0 mg/kg/injection, schedule: Q04DX002 (sc), vehicle: olive oil, sesame oil, peanut oil 109 % of control

Cc1[nH]c2ccccc2c1C
inactive: [12] 104 % of control | [14] 87 % of control

O=C(/C=C(/C(=C/C(=O)c1ccccc1)c1ccccc1)c1ccccc1)c1ccccc1
inactive: dose: 50.0 mg/kg/injection, schedule: Q01DX009 (ip), vehicle: Klucel (hydroxypropylcellulose) (HPC) 102 % of control | [12] 94 % of control | [14] 87 % of control

CC(C(O)c1ccc2cc(Br)c3ccccc3c2c1)N(C)C (configuration not stated)
inactive: dose: 55.0 mg/kg/injection, schedule: Q01DX Z (ip), vehicle: methylcellulose (MC) 101 % of control | dose: 83.0 mg/kg/injection, schedule: Q01DX Z (ip), vehicle: methylcellulose (MC) 101 % of control | dose: 125.0 mg/kg/injection, schedule: Q01DX Z (ip), vehicle: methylcellulose (MC) 101 % of control

O=C(C[n+]1cccc(OC(=O)c2ccccc2)c1)c1ccc(-c2ccccc2)cc1
inactive: dose: 75.0 mg/kg/injection, schedule: Q04DX003 (ip), vehicle: Klucel (hydroxypropylcellulose) (HPC) 100 % of control | [11] 100 % of control | dose: 150.0 mg/kg/injection, schedule: Q04DX003 (ip), vehicle: Klucel (hydroxypropylcellulose) (HPC) 91 % of control | [13] 97 % of control | dose: 300.0 mg/kg/injection, schedule: Q04DX003 (ip), vehicle: Klucel (hydroxypropylcellulose) (HPC) 96 % of control | [15] 101 % of control

S=C(Nc1ccc(Cl)c(Cl)c1)Sc1ccccc1
inactive: [3] 95 % of control | [4] 91 % of control

CCCCNC(=O)CC(C)C(=O)O (configuration not stated)
inactive: [10] 100 % of control | dose: 200.0 mg/kg/injection, schedule: Q01DX009 (ip), vehicle: saline with Tween-80 98 % of control | dose: 400.0 mg/kg/injection, schedule: Q01DX009 (ip), vehicle: saline with Tween-80 100 % of control

CC(C)=CCc1cc(OC(=O)OCc2ccccc2)c2ccccc2c1O
inactive: [11] 96 % of control | [13] 93 % of control | [15] 101 % of control

C/C(=N\O)C(=O)c1ccccc1
inactive: [12] 98 % of control | dose: 100.0 mg/kg/injection, schedule: Q04DX003 (ip), vehicle: Klucel (hydroxypropylcellulose) (HPC) 107 % of control | [17] 103 % of control | [14] 100 % of control | dose: 200.0 mg/kg/injection, schedule: Q04DX003 (ip), vehicle: Klucel (hydroxypropylcellulose) (HPC) 100 % of control | [18] 107 % of control | [16] 93 % of control | dose: 400.0 mg/kg/injection, schedule: Q04DX003 (ip), vehicle: Klucel (hydroxypropylcellulose) (HPC) 104 % of control | [19] 108 % of control

O=C1NCN(CCO)CN1
inactive: [17] 95 % of control | [18] 91 % of control | [19] 98 % of control

O=C1CCCCC1Cc1ccccc1 (configuration not stated)
inactive: dose: 200.0 mg/kg/injection, schedule: Q04DX003 (ip), vehicle: acetone 95 % of control
